Entries after “also recorded” stand apart in the source; their conditions may differ.
Tests used:
[1] = tested on: colorectal cell line (Colo205); assay: XTT-assay proliferation rate, colorectal cell line Colo205; format: cell-based, human; conditions: for Proliferation rate compared to medium control: Colo205 (Table 4); for Proliferation rate in per cent compared to untreated medium control: Colo205
Text: Commercially available human tumor cell lines were purchased from […], Borás, Sweden). Cell lines from urinary bladder (UM-UC-3, #CRL-1749), colorectal carcinoma (Colo205, #CCL-222 and HT29, #HTB-38), prostate carcinoma (LNCaP, #CRL-1740) and breast carcinoma (ZR-75-1, #CRL-1500) were purchased and stored in liquid nitrogen. […] Tumor cell lines were handled aseptically using a laminar airflow (LAF) bench (Holten 2448, Ninolab, Sweden) and stored in a liquid nitrogen tank and were initiated in culture as previously described (Falk P. Experimental models of the peritoneal environment: Effects of TGF-beta and Hyaluronan. Göteborg: University of Gothenburg; 2008). Briefly, ampoules of frozen cells were thawed by submerging into a 37° C. water bath for 45 s. […] Culture media was changed two-three times a week. Culture flasks (Cell+, Sarstedt, Nümbrecht, Germany) and culture plates (Falcon/BD, Franklin Lakes, N.J., USA) were used for experimental set-ups. […] Described culture techniques and equipment have been used extensively in the laboratory The proliferation rates of the different human tumor cell lines were studied using a method based on the conversion of a sodium salt (XTT-assay, Sigma) into a stable orange color that could be analyzed in a spectrophotometer. The color change is proportional to the mitochondrial dehydrogenase activity resulting in an effective technique for measuring cell toxicity (Roehm N W, Rodgers […], Glasebrook A L. An improved colorimetric assay for cell proliferation and viability utilizing the tetrazolium salt XTT. […] The color change was measured using a 96-well plate reader with software to calculate the absorbance at 450 nm (V-max/Softmax Pro, Molecular Devices, USA). […] RPMI 1640 and EMEM without phenol red was used during the experiments to reduce the red color background signal in the XTT-assay. […] Untreated wells including culture medium only served as untreated controls. The XTT-assay substrate was added and after gentle agitation using a micro plate shaker, absorbencies at 450 and 650 nm were measured. Levels from medium were subtracted and compared with control wells, using culture medium only.

[2] = tested on: human urinary bladder cancer cells; assay: Tryphan blue exclusion viability; format: cell-based; conditions: compared to untreated medium control (FIG. 3)
Method: The effect of Ivermectin, selamectin, abamectin alone, or in combination with ketoconazole, albendazole, ibuprofen, diclofenac and celecoxib on the morphology of cultured human tumor cells was studied. The effect of ivermectin in the presence of increasing concentration of ivermectin was also investigated. Cells were grown into sub-confluence and then sub-cultured into 12 and 24 well plates (Sarstedt, Falcon/BD) for morphology studies, or in 96 well plates (Sarstedt, Falcon/BD) for proliferation studies. Viability of urinary bladder cells was studied using the tryphan blue exclusion method (Freshney R. Culture of animal cells: A manual of basic techniques. New York: Alan R Liss Inc; 1987).

[3] = tested on: breast cancer cell line 2R-75-1; assay: Morphology of cultured tumor cells, ZR-75-1; format: cell-based, human; conditions: ivermectin 10e-4 to 10e-10 mol/L (FIG. 2)
Method: Commercially available human tumor cell lines were purchased from ATCC (ATCC/LGC-standards, Borás, Sweden). Cell lines from urinary bladder (UM-UC-3, #CRL-1749), colorectal carcinoma (Colo205, #CCL-222 and HT29, #HTB-38), prostate carcinoma (LNCaP, #CRL-1740) and breast carcinoma (ZR-75-1, #CRL-1500) were purchased and stored in liquid nitrogen. Cells were cultured in Roswell Park Memorial Institute media (RPMI-1640) or minimum essential medium with Earl's salts (EMEM) supplemented with 10% Foetal calf serum (FCS, Sigma) and cultured using a 37° C. cell culture incubator (Forma Scientific, NinoLab, Kungsbacka, Sweden) with 5% CO2 humidified atmosphere. Tumor cell lines were handled aseptically using a laminar airflow (LAF) bench (Holten 2448, Ninolab, Sweden) and stored in a liquid nitrogen tank and were initiated in culture as previously described (Falk P. Experimental models of the peritoneal environment: Effects of TGF-beta and Hyaluronan. Göteborg: University of Gothenburg; 2008). Briefly, ampoules of frozen cells were thawed by submerging into a 37° C. water bath for 45 s. Cells were resuspended in 10 ml of preheated RPMI-1640 with 10% FCS and centrifuged in 260 g for 10 min. […] Cells were regularly monitored using an inverted microscope connected to a digital photo equipment (Axiovert 25 and Axiovision, Zeiss, Carl Zeiss AG, Germany) (FIG. 1). […]

[4] = tested on: advanced urothelial cancer with extensive metastasis; assay: Case observation of a patient given ivermectin; format: in vivo, human; conditions: middle age person, standard treatment dosage for Strongyloidiasis, no other medication
Text: The present studies are based on an observation describing a middle age person suffering from an advanced urothelial cancer with extensive metastasis. Due to a tropical infection (Strongyloidiasis) this patient received the substance ivermectin as a standard treatment dosage.
The present studies are based on a case report describing a middle age person suffering from an advanced urothelial cancer with extensive metastasis. Due to a tropical infection this patient received the substance ivermectin. […] The reason for this is not known however a direct effect of the substance ivermectin could not be precluded.

## 22,23-dihydroavermectin B1a+22,23-dihydroavermectin B1b [ivermectin]
[1]; IVM 1 μmol/L alone
  Proliferation rate compared to medium control: 101.3 ± 4.9%
[1]; IVM 10 μmol/L alone
  Proliferation rate compared to medium control: 97.7 ± 8.5%
[1]; IVM 100 μmol/L alone
  Proliferation rate compared to medium control: 69.4 ± 11.5%
[1]; ivermectin 10e-9 mol/L
  Proliferation rate in per cent compared to untreated medium control: 97 ± 14%
[1]; ivermectin 10e-8 mol/L
  Proliferation rate in per cent compared to untreated medium control: 104 ± 8%
[1]; ivermectin 10e-7 mol/L
  Proliferation rate in per cent compared to untreated medium control: 69±9%
[1]; ivermectin 10e-6 mol/L
  Proliferation rate in per cent compared to untreated medium control: 42±12%
[1]; ivermectin 10e-5 mol/L
  Proliferation rate in per cent compared to untreated medium control: 6±1%
[1]; ivermectin 10e-4 mol/L
  Proliferation rate in per cent compared to untreated medium control: 4±1%
[2]
  Tryphan blue exclusion (viability): affected cells in a dose-dependent manner
[3]
  Morphological effects over the concentration series: affected by the highest concentration 10e-4 mol/L only
[4]
  Clinical outcome of the urothelial cancer: all the clinical signs of the urothelial cancer disappeared; also recorded: treated both the tropical infection and the urothelial cancer

Source: patent publication US9782424B2, “Synergistic combination comprising avermectins and a NSAID for tumor inhibition” (Ectin Research AB, priority 2011, dated 2017)
